Measured values from patent publication US5556744A, “Methods and compositions for diagnosing and treating certain HIV infected patients” (The Trustees of the University of Pennsylvania, priority 1994, dated 1996).

Legend:
[1] = tested on: maternal sera (antibodies); assay: ELISA peptide-binding of maternal sera (Example 6); set-up: species or system human; conditions: for Number of Non-Transmitters which bound to peptide / Percent of Non-Transmitters which bound to peptide: N = 12; for Number of Transmitters which bound to peptide / Percent of Transmitters which bound to peptide: N = 4
Method in brief: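 HIV-1 envelope peptides averaging 16 amino acids, covering external and transmembrane glycoprotein, were probed by ELISA. Third-trimester maternal sera, classed as transmitter or non-transmitter by child diagnosis, were each run on at least 40 peptides. Values give percent of sera binding a peptide.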

[2] = tested on: maternal HIV+ sera (antibodies); assay: RIA / ELISA binding of maternal HIV+ sera to gp120 and gp41 peptides (Example 3); set-up: species or system human
Method in brief: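 Maternal sera, diluted 1:50 and 1:500, were bound overnight at 4°C to peptides immobilized at 10 μg/ml (pH 9.6 carbonate) and blocked with 1% BSA. Read-out was ¹²⁵I-labelled anti-human IgG counts or HRP-TMB OD450. Signal with peptide minus without was expressed relative to seronegative serum.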

[3] = Serum No. 1, Non-Transmission Group
[4] = Serum No. 2, Non-Transmission Group
[5] = Serum No. 3, Non-Transmission Group
[6] = Serum No. 4, Transmission Group
[7] = Serum No. 5, Transmission Group
[8] = Serum No. 6, Non-Transmission Group
[9] = Serum No. 7, Non-Transmission Group
[10] = Serum No. 8, Non-Transmission Group
[11] = Serum No. 9, Non-Transmission Group
[12] = Serum No. 10, Transmission Group
[13] = Serum No. 11, Non-Transmission Group
[14] = Serum No. 12, Non-Transmission Group
[15] = Serum No. 13, Transmission Group
[16] = Serum No. 14, Transmission Group
[17] = Serum No. 15, Transmission Group
[18] = Serum No. 16, Non-Transmission Group
[19] = Serum No. 17, Non-Transmission Group
[20] = Serum No. 18, Non-Transmission Group
[21] = Serum No. 19, Transmission Group
[22] = Serum No. 20, Non-Transmission Group

| Substance | Number of Non-Transmitters which bound to peptide [1] | Percent of Non-Transmitters which bound to peptide [1] | Number of Transmitters which bound to peptide [1] | Percent of Transmitters which bound to peptide [1] | Binding of maternal HIV+ serum to peptide (sera/NHS ratio) [2, 3] | Binding of maternal HIV+ serum to peptide (sera/NHS ratio) [2, 4] | Binding of maternal HIV+ serum to peptide (sera/NHS ratio) [2, 5] | Binding of maternal HIV+ serum to peptide (sera/NHS ratio) [2, 6] | Binding of maternal HIV+ serum to peptide (sera/NHS ratio) [2, 7] | Binding of maternal HIV+ serum to peptide (sera/NHS ratio) [2, 8] | Binding of maternal HIV+ serum to peptide (sera/NHS ratio) [2, 9] | Binding of maternal HIV+ serum to peptide (sera/NHS ratio) [2, 10] | Binding of maternal HIV+ serum to peptide (sera/NHS ratio) [2, 11] | Binding of maternal HIV+ serum to peptide (sera/NHS ratio) [2, 12] | Binding of maternal HIV+ serum to peptide (sera/NHS ratio) [2, 13] | Binding of maternal HIV+ serum to peptide (sera/NHS ratio) [2, 14] | Binding of maternal HIV+ serum to peptide (sera/NHS ratio) [2, 15] | Binding of maternal HIV+ serum to peptide (sera/NHS ratio) [2, 16] | Binding of maternal HIV+ serum to peptide (sera/NHS ratio) [2, 17] | Binding of maternal HIV+ serum to peptide (sera/NHS ratio) [2, 18] | also measured |
| --- | --- | --- | --- | --- | --- | --- | --- | --- | --- | --- | --- | --- | --- | --- | --- | --- | --- | --- | --- | --- | --- |
| CIVQQQNNLLRAI-EAQQHLLQLTVWGIKQL (CIVQQQNNLLRAIEAQQHLLQLTVWGIKQL) [Peptide 560] | 0 | 0% | 0 | 0% | + (which value is between 2 to 3) | - (specific OD450 or cpm of sera sample binding to peptide divided by the specific OD450 or cpm of NHS sample binding to peptide, which value is less than 2) | - (specific OD450 or cpm of sera sample binding to peptide divided by the specific OD450 or cpm of NHS sample binding to peptide, which value is less than 2) | - (specific OD450 or cpm of sera sample binding to peptide divided by the specific OD450 or cpm of NHS sample binding to peptide, which value is less than 2) | - (specific OD450 or cpm of sera sample binding to peptide divided by the specific OD450 or cpm of NHS sample binding to peptide, which value is less than 2) | - (specific OD450 or cpm of sera sample binding to peptide divided by the specific OD450 or cpm of NHS sample binding to peptide, which value is less than 2) | - (specific OD450 or cpm of sera sample binding to peptide divided by the specific OD450 or cpm of NHS sample binding to peptide, which value is less than 2) | - (specific OD450 or cpm of sera sample binding to peptide divided by the specific OD450 or cpm of NHS sample binding to peptide, which value is less than 2) | - (specific OD450 or cpm of sera sample binding to peptide divided by the specific OD450 or cpm of NHS sample binding to peptide, which value is less than 2) | - (specific OD450 or cpm of sera sample binding to peptide divided by the specific OD450 or cpm of NHS sample binding to peptide, which value is less than 2) | - (specific OD450 or cpm of sera sample binding to peptide divided by the specific OD450 or cpm of NHS sample binding to peptide, which value is less than 2) | - (specific OD450 or cpm of sera sample binding to peptide divided by the specific OD450 or cpm of NHS sample binding to peptide, which value is less than 2) | - (specific OD450 or cpm of sera sample binding to peptide divided by the specific OD450 or cpm of NHS sample binding to peptide, which value is less than 2) | - (specific OD450 or cpm of sera sample binding to peptide divided by the specific OD450 or cpm of NHS sample binding to peptide, which value is less than 2) | - (specific OD450 or cpm of sera sample binding to peptide divided by the specific OD450 or cpm of NHS sample binding to peptide, which value is less than 2) | - (specific OD450 or cpm of sera sample binding to peptide divided by the specific OD450 or cpm of NHS sample binding to peptide, which value is less than 2) | Binding of maternal HIV+ serum to peptide (sera/NHS ratio) [2, 19]: - (specific OD450 or cpm of sera sample binding to peptide divided by the specific OD450 or cpm of NHS sample binding to peptide, which value is less than 2); Binding of maternal HIV+ serum to peptide (sera/NHS ratio) [2, 20]: - (specific OD450 or cpm of sera sample binding to peptide divided by the specific OD450 or cpm of NHS sample binding to peptide, which value is less than 2); Binding of maternal HIV+ serum to peptide (sera/NHS ratio) [2, 21]: - (specific OD450 or cpm of sera sample binding to peptide divided by the specific OD450 or cpm of NHS sample binding to peptide, which value is less than 2); Binding of maternal HIV+ serum to peptide (sera/NHS ratio) [2, 22]: - (specific OD450 or cpm of sera sample binding to peptide divided by the specific OD450 or cpm of NHS sample binding to peptide, which value is less than 2) |
| IGALFLGFGAAGST [Peptide 117] | 2 | 16.7% | 0 | 0% | - (specific OD450 or cpm of sera sample binding to peptide divided by the specific OD450 or cpm of NHS sample binding to peptide, which value is less than 2) | - (specific OD450 or cpm of sera sample binding to peptide divided by the specific OD450 or cpm of NHS sample binding to peptide, which value is less than 2) | - (specific OD450 or cpm of sera sample binding to peptide divided by the specific OD450 or cpm of NHS sample binding to peptide, which value is less than 2) | - (specific OD450 or cpm of sera sample binding to peptide divided by the specific OD450 or cpm of NHS sample binding to peptide, which value is less than 2) | - (specific OD450 or cpm of sera sample binding to peptide divided by the specific OD450 or cpm of NHS sample binding to peptide, which value is less than 2) | - (specific OD450 or cpm of sera sample binding to peptide divided by the specific OD450 or cpm of NHS sample binding to peptide, which value is less than 2) | - (specific OD450 or cpm of sera sample binding to peptide divided by the specific OD450 or cpm of NHS sample binding to peptide, which value is less than 2) | - (specific OD450 or cpm of sera sample binding to peptide divided by the specific OD450 or cpm of NHS sample binding to peptide, which value is less than 2) | - (specific OD450 or cpm of sera sample binding to peptide divided by the specific OD450 or cpm of NHS sample binding to peptide, which value is less than 2) | - (specific OD450 or cpm of sera sample binding to peptide divided by the specific OD450 or cpm of NHS sample binding to peptide, which value is less than 2) | - (specific OD450 or cpm of sera sample binding to peptide divided by the specific OD450 or cpm of NHS sample binding to peptide, which value is less than 2) | - (specific OD450 or cpm of sera sample binding to peptide divided by the specific OD450 or cpm of NHS sample binding to peptide, which value is less than 2) | - (specific OD450 or cpm of sera sample binding to peptide divided by the specific OD450 or cpm of NHS sample binding to peptide, which value is less than 2) | - (specific OD450 or cpm of sera sample binding to peptide divided by the specific OD450 or cpm of NHS sample binding to peptide, which value is less than 2) | - (specific OD450 or cpm of sera sample binding to peptide divided by the specific OD450 or cpm of NHS sample binding to peptide, which value is less than 2) | - (specific OD450 or cpm of sera sample binding to peptide divided by the specific OD450 or cpm of NHS sample binding to peptide, which value is less than 2) | Binding of maternal HIV+ serum to peptide (sera/NHS ratio) [2, 19]: - (specific OD450 or cpm of sera sample binding to peptide divided by the specific OD450 or cpm of NHS sample binding to peptide, which value is less than 2); Binding of maternal HIV+ serum to peptide (sera/NHS ratio) [2, 20]: - (specific OD450 or cpm of sera sample binding to peptide divided by the specific OD450 or cpm of NHS sample binding to peptide, which value is less than 2); Binding of maternal HIV+ serum to peptide (sera/NHS ratio) [2, 21]: - (specific OD450 or cpm of sera sample binding to peptide divided by the specific OD450 or cpm of NHS sample binding to peptide, which value is less than 2); Binding of maternal HIV+ serum to peptide (sera/NHS ratio) [2, 22]: - (specific OD450 or cpm of sera sample binding to peptide divided by the specific OD450 or cpm of NHS sample binding to peptide, which value is less than 2) |
